Test system: B16-F1 mouse melanoma cells
Assay: Melanin Synthesis Assay
Assay type: cell-based
Protocol: A B16-F1 mouse melanoma cell line may be employed as an assay to measure melanin synthesis. The B16-F1 cells may be obtained from American Tissue Culture Collection, Virginia, USA. The cell culture medium that may be used in the assay may comprise 500 mL of Dulbecco's Modified Eagle's Medium (DMEM), 50 mL Fetal Bovine Serum (FBS), and 5 mL of penicillin-streptomycin liquid. B16-F1 cells that are cultured in this medium and grown to greater than 90% confluency synthesize melanin. While not intending to be bound by any theory, it is hypothesized that melanin synthesis is stimulated by the culture medium and/or stress induced by growth to a high confluency. […] Equipment used in the assay include a CO2 incubator, such as a Forma Series Model 3110 by Therma Scientific, Massachusetts, USA; a hemocytometer, such as a Bright Line model by Hauser Scientific, Pennsylvania, USA; and a UV-Visible Spectrum Plate Reader, such as a SpectraMax250 from Molecular Devices, California, USA. […] Read the 96 well plate using the UV-Vis Plate Reader at 410 nm to optically measure the amount of melanin produced between wells that are treated with [test compound] and control wells that are not treated with a test compound. […] Percentage of melanin synthesis inhibition is calculated by the following equation: [formula] Where OD410 is the Optical Density at 410 nm as measured by the UV-Vis Spectrum Plate Reader. […]

CC(C)=CCC[C@](C)(O)[C@@H]1CC=C(C)CC1 [Sample 1, bisabolol]
Average Melanin % Inhibition (OD 410 nm, Bis 0.1%, HD 0.00056%, UP 0.00011%, Nia 0.00056% where present): 2.2% | reduction of the production of melanin as compared to Sample 4 (HD/UP/Nia) (statistical comparison versus Sample 4): did not significantly reduce

Source: patent US20150352022A1, “Cosmetic Compositions and Methods For Inhibiting Melanin Synthesis” (The Procter & Gamble Company, priority 2013, published 2015)
